Results as given in US20110256147A1, “DIAGNOSTIC AND TREATMENT METHODS FOR CANCER BASED ON IMMUNE INHIBITORS” (THE JOHNS HOPKINS UNIVERSITY, priority 2008, published 2011).

Test system: CD1d-mediated activation of NKT cells
Test: CD1d-mediated activation of a panel of NKT cell hybridomas by pretreated LCD1dwt cells, IL-2 ELISA
Format: cell-based, mouse
Details: LCD1dwt cells treated 4 h; DN32.D3, N37-1A12, N38-3C3
Experimental: FIG. 2. […] LCD1dwt cells were treated with 1 ml media containing 5% FBS, FBS, human AB serum or serum from the indicated patients for 3-4 h, washed extensively and then co-cultured with N37-1A12 and N38-3C3 NKT cell hybridomas. IL-2 was measured by standard cytokine ELISA, and data is shown as percent control, normalized to cells treated with culture media as 100% or the maximum level of stimulation.
FIG. 4. Treatment with ovarian cancer associated ascites has no effect on HLA-A2 mediated antigen presentation. […] IFN-γ released was measured by ELISA. […] NKT cell recognition of CD1d was assessed by measuring IL-2 production in the supernatants by ELISA.
FIG. 5. […] NKT cell recognition of CD1d1 was assessed by measuring IL-2 production in the supernatants by ELISA. […]
FIG. 6. […] IL-2 was measured, as an indication of NKT cell activation, by standard cytokine ELISA. […] NKT cell recognition of CD was assessed by measuring IL-2 production in the supernatants by ELISA. […]
FIG. 7. […] (A) IL-2 was measured, or GM-CSF (B) as an indication of NKT cell activation, by standard cytokine ELISA. […] The extracted lipids were analyzed by thin-layer chromatography (TLC) (HPTLC Silica Gel 60; Merck, Darmstadt, Germany) with chloroform-methanol-0.25% aqueous KCl (60:35:8) as running solvent. Gangliosides were detected with a resorcinol—HCl Cu2+ reagent. […]

GT1b
CD1d-mediated activation of NKT cells, increasing doses of ganglioside: did not inhibit
